One data set addresses FKBP (Homo sapiens, UniProt P62942). Kind of data set: PPIase Inhibition Assay. Type of data set: biochemical. As for the experimental part: 1) Inhibition of PPlase Activity
This assay follows in principle the procedure described in Kofron et al., 1991, Biochemistry 30:6127. The three main reagents used are PPIase, a substrate for PPIase, and a selected inhibitor compound of the present invention. The basic principle behind this assay is the conversion of the cis isomer of the substrate to the trans form, which conversion is catalyzed by PPIase. Essentially, inhibition of this PPIase activity is measured for the selected compounds. A peptide chymotrypsin substrate containing a proline in the P2 position is only cleaved by chymotrypsin when the Phe-Pro bond is in the trans isomeric configuration. In the presence of excess chymotrypsin, all of the trans peptide isomers are cleaved within approximately five seconds, leaving only cis forms.
The cis peptide will spontaneously convert to the trans isomer at a slow rate. The cis to trans conversion is catalyzed by isomerases at a much faster rate than this spontaneous conversion. Proteins with PPIase activity are examples of such isomerases. After isomerization, the peptide is cleaved by chymotrypsin releasing p-nitroaniline which can be monitored at 390 nm. The rate of release is then calculated using a first order rate plus offset equation utilizing the ENZFITTER program (Leatherbarrow, BIOSOFT, Cambridge, United Kingdom).
In a plastic cuvette are added 950 ul of ice cold assay buffer (25 mM HEPES, pH 7.8, 100 mM NaCl), 10 uL of FKBP (2.5 uM in 10 mM Tris-Cl pH 7.5,100 mM NACl, 1 mM dithiothreitol), 25 ul of chymotrypsin (50 mg/ml in 1 mM HCl) and 10 ul of the test compound at various concentrations in dimethyl sulphoxide. The reaction is initiated by addition of 5 ul of substrate (Succinyl-Ala-Phe-Pro-Phe-para-nitroanilide, 5 mg/ml in 235 mM LiCl in trifluoroethanol).
The absorbance at 390 nm versus time is monitored for 90 sec using a Beckman DU70 spectrophotometer. The absorbance versus time data files are transferred to an IBM XT computer and the rate constants determined using the commercial Enzfitter program. For each set of data, the uncatalyzed rate of conversion is measured and the uninhibited enzymatic rate determined. The data are expressed as % Inhibition and are calculated as follows: [formula] where kobs is the rate in the presence of a selected test compound, kuncat is the rate in the absence of enzyme, and kuninh is the rate in the presence of enzyme and absence of inhibitor. Data are plotted as percent inhibition versus concentration of inhibitor. The values of the concentration of inhibitor required for 50% inhibition of enzyme activity (IC50) were determined by nonlinear least squares regression analysis.

Another data set concerns human T-cells. Kind of data set: Suppression of Human T-Cell Proliferation Assay (mitogen-induced, [3H]-thymidine incorporation). Type of data set: cell-based. Particulars: Homo sapiens, T-cell; 72 hours incubation; mitogen stimulated; read-out: IC50 (inhibition of [3H]-thymidine incorporation of T-cells by 50%). The text has this:
2) Human T Lymphocyte Inhibition
Inhibition of mitogen-induced T-cell proliferation can be used to profile immunosuppressive activity of test compounds. In the description of the assay which follows, mitogen-induced T-cell proliferation was used to test the inhibitory potencies of select compounds of the present invention.
In an assay similar to that described by Bradley in Mishell et al. (Eds.), 1980, Selected Methods in Cellular Immunology, pp 156-161, W. H. Freeman & Co., San Fransisco, Calif., T-cells were stimulated by incubation with phytohemagglutinin (PPIA) which binds to cell surface molecules, including the T-cell receptor. This stimulation results in proliferation which can be measured by incorporation of [^3 H]-thymidine into cellular DNA.
The immunosuppressive properties of the compounds of the present invention can be determined by adding various concentrations of the compounds to these cultures and measuring the effect on T-cell proliferation.
Suppression of Human T-Cell Proliferation Assay
Fresh LeukoPaks were obtained from the New York Blood Center, New York, N.Y. The cells, including erythrocytes and leukocytes, were diluted with Hank's Balanced Salt Solution (HBSS) (GIBCO, Grand Island, N.Y.) and layered over Lymphoprep (Nycomed Pharma AS, Oslo, Norway) in sterile 50 ml conical centrifuge tubes. Lymphocytes were isolated at the Hank's/Nycomed interface after centrifugation at 2000×g, 4° C. for 15 min. The lymphocytes were washed with Minimal Essential Medium (GIBCO) containing 2% fetal bovine serum (FBS) (Sigma Chemical Co., St. Louis, Mo.), 1% HEPES buffer (GIBCO) and 1% Penicillin-Stretomycin solution (GIBCO).
T-cells were further purified essentially by sheep erythrocyte (SRBC) rosetting as described by Morimoto et al., 1983, J. Immunol. 130:157. The isolated lymphocytes were adjusted to 2×10^7 cells/ml and 5 ml aliquots of the cell suspension were incubated for 10 minutes at room temperature with 5 ml of a 5% SRBC (Cappel, Organon Technika Corp., West Chester, Pa.) suspension. The cells were gently pelleted by centrifugation at 300 rpm for 10 minutes, followed by a 1 hour incubation at room temperature to allow rosette formation. The cells were gently resuspended,layered over Lymphoprep and centrifuged for 30 minutes at 500×g. The pellet, containing rosetted T-cells and SRBC was treated with ice cold buffered ammonium chloride (GIBCO) to lyse the erythrocytes. T-cells were washed twice with HBSS.
Purified T-cells were resuspended at 2×10^6 cells/ml in complete culture medium composed of RPMI-1640 (Whittaker Bioproducts, Walkerville, Md.) with 10% FBS (Sigma), 2 mM L-glutamine (GIBCO), 1% Penicillin-Streptomycin (GIBCO) and 15 mM HEPES (GIBCO). In 96-well plates (Becton Dickinson, Lincoln Park, N.J.), 0.1 ml aliquots of T-cell suspension were mixed with 0.05 ml of 40 μg/ml PPIA-M (Sigma). The compounds of this invention were dissolved in dimethylsulfoxide at 10 mM and various dilutions in complete medium were added in duplicate wells (0.05 ml/well). The plates were incubated at 37° C. in a humidified atmosphere of 5% carbon dioxide and 95% air for 72 hours.
Proliferation was assessed by measurement of [3H]-thymidine incorporation. During the last 6 hours of incubation, the cells were pulse labelled with 1 μCi/well of [3H]-thymidine (New England Nuclear, Boston, Mass.). The cells were harvested onto glass fiber paper using a plate harvester and the radioactivity incorporated into cellular DNA corresponding to individual wells was measured by standard liquid scintillation counting methods. The mean counts per minute (CPM) of replicate wells was calculated and linear regression analysis of mean CPM versus compound concentration was used to determine the concentration of compound which would inhibit [^3 H]-thymidine incorporation of T-cells by 50% (IC50).

For the next data set, the system named is NF-AT. Particulars: Schreiber and Crabtree, 1992; cited from earlier work.
The subject of another data set is IL-2 production. Particulars: cited from earlier work.
In another data set the test system is dogs. Particulars: Collier et al., 1988; cited from earlier work.
Another data set concerns transplant patients. Particulars: cited from earlier work.
Data set [1] concerns FK506 binding protein (FKBP). Particulars: cited from earlier work.
Another data set deals with baboons. Particulars: Collier et al., 1988; cited from earlier work.

pIC50: −log10 of the molar value.

Chain of FKBP (P62942 whole entry): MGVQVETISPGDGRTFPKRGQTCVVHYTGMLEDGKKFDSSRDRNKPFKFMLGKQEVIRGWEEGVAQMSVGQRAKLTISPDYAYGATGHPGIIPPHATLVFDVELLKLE

As for `CC(C)C[C@@H](CN1CCC[C@H]1C(=O)NCCCCc1ccccc1)NS(=O)(=O)CS(C)(=O)=O` [Example 9, 1-[2-(S)-(Methylsulfonylmethanesulfonylamino)-4-methylpentyl]-L-proline 4-Phenylbutylamide], the values for the pIC50 against FKBP and in the data set with human T-cells were less than 5.30 and 5.40, respectively.
`C=CC[C@@H]1/C=C(\C)C[C@H](C)C[C@H](OC)[C@H]2O[C@@](O)(C(=O)C(=O)N3CCCC[C@H]3C(=O)O[C@H](/C(C)=C/[C@@H]3CC[C@@H](O)[C@H](OC)C3)[C@H](C)[C@@H](O)CC1=O)[C@H](C)C[C@@H]2OC` [FK506]: in the data set with NF-AT, the “NF-AT activity (in words)” value is recorded as “inhibited”. For the same compound, the “IL-2 production (in words)” value in the data set with IL-2 production is on record as “inhibit IL-2 production”. In addition, the vasculitis entry with dogs and in the data set on baboons was “severe vasculitis” in each case. Also, the “effectiveness in transplant patients who do not respond to CsA” value in the data set on transplant patients (Tucci et al., 1989) is recorded as “effective in some transplant patients who do not respond to CsA”. Also, the “absolute rate of clinical rejection vs current standard therapies” value in the data set with transplant patients (post-organ transplantation patients, Holechek, 1991) is recorded as “only slightly lower than with current standard therapies”. The “binding to FKBP (in words)” value in data set [1] is “bound”.

The values are drawn from patent US5633277A, “Sulfonamide aminomethylene derivatives as immunosuppressants” (Miles Inc., priority 1995, dated 1997).
